What was measured:
[1] = biological target: T1, ligand-binding domain of RORγ (RORγ-LBD) (Homo sapiens, UniProt P51449); test: Inhibitory effect on RORγ-coactivator binding (LanthaScreen TR-FRET RORγ Coactivator Assay); details: at 33 μmol/L of the test compound; read-out: RORγ-coactivator binding inhibition rate (%)
T1 construct: purchased Invitrogen
T1 sequence (P51449 269-508 limits assumed): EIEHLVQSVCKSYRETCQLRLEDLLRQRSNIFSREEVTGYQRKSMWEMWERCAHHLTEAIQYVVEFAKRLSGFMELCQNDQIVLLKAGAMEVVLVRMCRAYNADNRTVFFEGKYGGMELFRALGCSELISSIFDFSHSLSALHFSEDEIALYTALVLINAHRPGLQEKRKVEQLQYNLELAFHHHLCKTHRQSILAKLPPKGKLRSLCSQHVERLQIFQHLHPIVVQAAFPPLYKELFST
Summary of the method: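 TR-FRET: 4 nmol/L GST-RORγ-LBD with compound (1% DMSO) in Coregulator Buffer D plus 5 mmol/L DTT, then 150 nmol/L fluorescein-TRAP220/DRIP-2 and 32 nmol/L Tb-anti-GST antibody; 16–24 hours at room temperature. 520/495 nm ratio (320 nm excitation), background-corrected against control, gives % inhibition of coactivator binding.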

[2] = tested on: mouse experimental autoimmune encephalomyelitis model; test: Mouse experimental autoimmune encephalomyelitis model; assay type: in vivo; details: C57BL/6J mice, vs vehicle
Experimental: Using increase in the neurological symptom score as an index of exacerbation of symptoms, the effect of the cyclic amine derivative (I) or a pharmacologically acceptable salt thereof in a mouse experimental autoimmune encephalomyelitis model was evaluated. The mouse experimental autoimmune encephalomyelitis model was prepared by a partially modified method by Hindinger et al. (Journal of Neuroscience Research, 2006, Vol. 84, p. 1225-1234).
A total of 0.1 mL (0.05 mL on each side) of an MOG35-55 administration solution prepared by mixing a PBS solution containing partial synthetic peptides of myelin oligodendrocyte glycoproteins (MOG35-55; CSBio, Inc.) prepared to a concentration of 4 mg/mL with Freund's complete adjuvant at equal amount was intradermally inoculated to both flank sides of C57BL/6J mice (male, 8 weeks old) (Charles River Laboratories Japan, Inc.). Furthermore, 200 μL of pertussis toxin (Sigma-Aldrich Japan) prepared to a concentration of 1 μg/mL was intraperitoneally administered to the mice on the day of inoculation and 2 days after inoculation of the MOG35-55 administration solution.
After inoculation of the MOG35-55 administration solution, the test compound was administered to the mice. As the test compound, the compound of Example 20, the compound of Example 29, and the compound of Example 57 were used. The compound of Example 20 was suspended in a 0.5 w/v % methylcellulose solution and orally administered once daily at a dose of 3 mg/kg every day from 2 days after inoculation of the MOG35-55 administration solution. […]
After inoculation of the MOG35-55 administration solution, the neurological symptom scores in the groups in which test compound was administered and the corresponding vehicle administration groups were scored (0: normal, 1: limp tail or hind limb weakness, 2: limp tail and hind limb weakness, 3: partial hind limb paralysis, 4: complete hind limb paralysis, 5: moribund state). […]

inhibition at 33 µM [1] [%]	Structure (SMILES)	increase in the neurological symptom score ([2]; 1 mg/kg orally once daily from 13 days after MOG35-55 inoculation, score on the 23rd day, Wilcoxon test P<0.05 (FIG. 2))	increase in the neurological symptom score ([2]; 1 mg/kg orally once daily from 13 days after MOG35-55 inoculation, score on the 30th day, Wilcoxon test P<0.05 (FIG. 3))	increase in the neurological symptom score ([2]; 3 mg/kg orally once daily from 2 days after MOG35-55 inoculation, score on the 13th day, Wilcoxon test P<0.05 (FIG. 1))
101	CN(CC(=O)N1CCCC[C@@H]1C(=O)Nc1ccc(-c2ccccc2OC(F)(F)F)c(Cl)c1)S(C)(=O)=O [Example 29, (R)-N-(2-chloro-2′-(trifluoromethoxy)-[1,1′-biphenyl]-4-yl)-1-(2-(N-methylmethylsulfonamide)acetyl)piperidine-2-carboxamide]	statistically significantly suppressed		
103	O=C(Nc1ccc(-c2ccccc2OC(F)(F)F)c(Cl)c1)[C@H]1CCCCN1C(=O)Cn1cnnn1 [Example 57, (R)-1-(2-(1H-tetrazol-1-yl)acetyl)-N-(2-chloro-2′-(trifluoromethoxy)-[1,1′-biphenyl]-4-yl)piperidine-2-carboxamide]		statistically significantly suppressed	
101	CC(=O)N1CCCC[C@@H]1C(=O)Nc1ccc(-c2ccccc2OC(F)(F)F)c(Cl)c1 [Example 20, (R)-1-acetyl-N-(2-chloro-2′-(trifluoromethoxy)-[1,1′-biphenyl]-4-yl)piperidine-2-carboxamide]			statistically significantly suppressed
